Data reported in patent US20090306219A1, “TOPICAL USE OF PLANT EXTRACT FOR SKIN DETOXIFICATION” (priority 2008, published 2009).

Legend:
[1] = system: glutathione; test: ELISA quantification of glutathione in keratinocyte culture; format: cell-based; details: 0.0005%, Treatment
Protocol: In simple terms, in ELISA an unknown amount of antigen is affixed to a surface, and then a specific antibody is washed over the surface so that it can bind to the antigen. […] This antibody is linked to an enzyme, and in the final step a substance is added that the enzyme can convert to some detectable signal. Thus in the case of fluorescence ELISA, when light is shone upon the sample, any antigen/antibody complexes will fluoresce so that the amount of antigen in the sample can be measured.
The ELISA kit used in this experiment was purchased from Cayman Chemicals. The experiment was performed as per the manufacturer's directions.

[2] = system: glyoxalase I; test: Quantification of Glyoxalase I via immunoassay (western blot) in keratinocyte culture; format: cell-based; details: 0.0005%, keratinocyte culture treated 24 hrs
Protocol: The blots were then transferred and probed with a fluorescent anti-body to glyoxalse I, purchased from Santa Cruz Biotechnology. Absorbance was measured and graphed.

C=CCSSSCC=C [Diallyl Trisulfide]
Glut Mean ([1]; Untreated mean 19): 21 | Glut 1 ([1]; replicate 1, Untreated 18): 20 | abs 1 ([1]; replicate 1 absorbance): 0.033 | Glut 2 ([1]; replicate 2, Untreated 20): 22 | abs 2 ([1]; replicate 2 absorbance): 0.036 | Glut 3 ([1]; replicate 3, Untreated 20): 20 | abs 3 ([1]; replicate 3 absorbance): 0.034 | Inv OD 1 ([2]; replicate 1): 91.6 | OD1 ([2]; replicate 1): 125.205 | Inv OD 2 ([2]; replicate 2): 90.7 | OD 2 ([2]; replicate 2): 126.011 | Inv OD 3 ([2]; replicate 3): 71.1 | OD 3 ([2]; replicate 3): 145.641 | Inv OD 4 ([2]; replicate 4): 129.4 | OD4 ([2]; replicate 4): 87.372 | Inv OD 5 ([2]; replicate 5): 93.0 | OD 5 ([2]; replicate 5): 123.78 | Inv OD 6 ([2]; replicate 6): 86.2 | OD 6 ([2]; replicate 6): 130.525 | Inv OD Mean ([2]; significantly different from Untreated (mean 66.5)): 93.7
